The source of these data is ChEMBL document CHEMBL1135877, “Neurotrophic activity of honokiol on the cultures of fetal rat cortical neurons” (2002).

Holding throughout (assay type): functional
For assay [1], the species on record is Rattus norvegicus. As to the kind of experiment: Compound was tested at 0.01 uM concentration for neurotrophic activity on cultures of E 18 SD rat cortical neurons.
For assay [2], the species on record is Rattus norvegicus. As to the kind of experiment: Compound was tested at 0.1 uM concentration for neurotrophic activity on cultures of E 18 SD rat cortical neurons.
For assay [3], the species on record is Rattus norvegicus. As to the kind of experiment: Compound was tested at 1 uM concentration for neurotrophic activity on cultures of E 18 SD rat cortical neurons.
Assay [4] is filed under the species Rattus norvegicus. As to the kind of experiment: Compound was tested at 10 uM concentration for neurotrophic activity on cultures of E 18 SD rat cortical neurons.
The species entered for assay [5] is Rattus norvegicus. The experiment in a line: Compound was tested at 100 uM concentration for neurotrophic activity on cultures of E 18 SD rat cortical neurons.

`C=CCc1ccc(O)c(-c2ccc(O)c(CC=C)c2)c1` [HONOKIOL]: the Control in the assay listed under Rattus norvegicus [1] was found to be 95.6%; in the assay listed under Rattus norvegicus [2] it was 106%; in the assay listed under Rattus norvegicus [3] it was 113%; in the assay listed under Rattus norvegicus [4], 143%; in the assay listed under Rattus norvegicus [5] it was 29.7%.
